Laboratory results from ChEMBL document CHEMBL1132750, “The synthesis and biological evaluation of a novel series of phthalazine PDE4 inhibitors I” (Bioorg Med Chem Lett, 2000).

Legend:
Phosphodiesterase 4 [1] = molecular target: T1, Phosphodiesterase 4 (Homo sapiens, UniProt P27815+Q08499+Q07343+Q08493); test: Inhibition of rolipram binding to PDE4 from human neutrophils; assay type: protein assay
Phosphodiesterase 4 [2] = molecular target: T1, Phosphodiesterase 4; test: Inhibition of Phosphodiesterase 4 from human neutrophils; assay type: protein assay
Homo sapiens = organism: Homo sapiens; test: Inhibition of TNF alpha synthesis in human monocytes; assay type: functional
Canis familiaris = test: Emetic effect in dogs after intravenous dose; assay type: functional; conditions: Canis lupus familiaris
Rattus norvegicus = organism: Rattus norvegicus; test: Increased acid secretion in isolated whole rat stomach; assay type: functional
Phosphodiesterase 4 [3] = molecular target: T1, Phosphodiesterase 4; test: Inhibition of Phosphodiesterase 4 from human neutrophils at 10e-7 M; assay type: protein assay

SMILES	Ki (Phosphodiesterase 4 [1])	IC50 (Phosphodiesterase 4 [2])	IC50 (Homo sapiens)	IC50 (Rattus norvegicus)	inhibition (Phosphodiesterase 4 [3])	ED50 (Canis familiaris)
COc1ccc(C(=O)Nc2c(Cl)cncc2Cl)cc1OC1CCCC1			1.3 nM	70 nM		1 µmol/kg
COc1ccc2c(Cc3c(Cl)cncc3Cl)nncc2c1OC1CCOC1 (centres undefined)	286 nM	153 nM				
FC(F)Oc1ccc2c(Cc3c(Cl)cncc3Cl)nncc2c1OC1CCCC1	46 nM	39 nM	167 nM			
COc1ccc2c(Cc3c(Cl)cncc3Cl)nncc2c1OC1Cc2ccccc2C1	16 nM	30 nM	252 nM			
COc1cc2cnnc(Nc3c(Cl)cncc3Cl)c2cc1OC1CCCC1					7%	
COc1cc2cnnc(Cc3c(Cl)cncc3Cl)c2cc1OC1CCCC1		186 nM				
COc1ccc2c(Cc3c(Cl)cncc3Cl)nncc2c1OC1CCCC1	149 nM	53 nM	254 nM	7000 nM		> 10 µmol/kg
COc1ccc(C2CNC(=O)C2)cc1OC1CCCC1 (centres undefined) [ROLIPRAM]			225 nM	40 nM		0.3 µmol/kg
COc1ccc2c(Nc3c(Cl)cncc3Cl)nncc2c1OC1CCCC1	95 nM	59 nM	187 nM			

The remaining molecules from weak to strong by IC50 (Homo sapiens), led by results:

Ki (Phosphodiesterase 4 [1])	IC50 (Phosphodiesterase 4 [2])	IC50 (Homo sapiens)	IC50 (Rattus norvegicus)	inhibition (Phosphodiesterase 4 [3])	SMILES	ED50 (Canis familiaris)
121 nM	42 nM	139 nM			COc1ccc2c(Cc3c(Cl)cncc3Cl)n[n+]([O-])cc2c1OC1CCCC1	
320 nM	30 nM	103 nM			COc1ccc2c(Cc3c(Cl)cncc3Cl)nncc2c1CCCCCc1ccccc1	
13 nM	57 nM	83 nM			COc1ccc2c(Cc3c(Cl)cncc3Cl)nncc2c1OCCCCCc1ccccc1	
164 nM	19 nM	52 nM			COc1ccc2c(Cc3c(Cl)cncc3Cl)nncc2c1/C=C/CCCc1ccccc1	
71 nM	10 nM	30 nM			COc1ccc2c(Cc3c(Cl)cncc3Cl)nncc2c1C#CCCCc1ccccc1	
